Earlier results, collected in patent US20110268770A1, “CHEWABLE GELLED EMULSIONS” (PROBIO ASA, priority 2008, published 2011).

details: commercially available statins

Row | solubility class (water-soluble or lipid-soluble) | Compound
1 | lipid-soluble | CC[C@H](C)C(=O)O[C@H]1C[C@@H](C)C=C2C=C[C@H](C)[C@H](CC[C@@H]3C[C@@H](O)CC(=O)O3)[C@H]21 [lovastatin]
2 | water-soluble | CC[C@H](C)C(=O)O[C@H]1C[C@H](O)C=C2C=C[C@H](C)[C@H](CC[C@@H](O)C[C@@H](O)CC(=O)O)[C@H]21 [pravastatin]
3 | water-soluble | CC(C)c1nc(N(C)S(C)(=O)=O)nc(-c2ccc(F)cc2)c1/C=C/[C@@H](O)C[C@@H](O)CC(=O)O [rosuvastatin]
